According to PMC9719519, “Non-classical ferroptosis inhibition by a small molecule targeting PHB2” (Nature Communications, 2022):

Experiments:
Assay in all cases: biochemical
Set-up in all cases: Eurofins recombinant human kinase profiling, remaining kinase activity as % of control, 10 uM ATP
Details in all cases: ATP 10 uM; read-out: %Ctrl@10 μM
AAK1(h) = AAK1(h) (Homo sapiens, UniProt Q2M2I8)
Method in brief: (§1)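 Recombinant human kinases, 401 in total, screened using an outsourced kinase profiling assay.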

Abl (H396P) (h) = target: T1, Abl (H396P) (h) (Homo sapiens, UniProt P00519, H396P)
T1 construct: gene ABL1
Method in brief: as §1

CK1ε(h) = target: T2, CK1ε(h) (Homo sapiens, UniProt P49674)
T2 construct: gene CSNK1E
T2 sequence (P49674 whole entry): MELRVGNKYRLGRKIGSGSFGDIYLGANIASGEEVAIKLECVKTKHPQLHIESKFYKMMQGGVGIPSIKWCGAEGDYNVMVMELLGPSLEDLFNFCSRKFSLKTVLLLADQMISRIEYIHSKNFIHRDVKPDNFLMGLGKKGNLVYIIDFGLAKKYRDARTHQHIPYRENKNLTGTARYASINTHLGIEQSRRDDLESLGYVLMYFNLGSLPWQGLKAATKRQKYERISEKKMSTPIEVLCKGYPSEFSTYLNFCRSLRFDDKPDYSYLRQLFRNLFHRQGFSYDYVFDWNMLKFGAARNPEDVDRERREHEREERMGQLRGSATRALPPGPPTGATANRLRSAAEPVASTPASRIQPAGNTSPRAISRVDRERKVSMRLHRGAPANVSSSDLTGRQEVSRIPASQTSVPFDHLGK
Method in brief: as §1

Cdc7/cyclinB1(h) = Cdc7/cyclinB1(h) (Homo sapiens, UniProt O00311)
Method in brief: as §1

ChaK1(h) = target: T3, ChaK1(h) (Homo sapiens, UniProt Q96QT4)
T3 construct: gene TRPM7
Method in brief: as §1

DAPK1(h) = DAPK1(h) (Homo sapiens, UniProt P53355)
Method in brief: as §1

DAPK2(h) = DAPK2(h) (Homo sapiens, UniProt Q9UIK4)
Chain of DAPK2(h) (Q9UIK4 whole entry): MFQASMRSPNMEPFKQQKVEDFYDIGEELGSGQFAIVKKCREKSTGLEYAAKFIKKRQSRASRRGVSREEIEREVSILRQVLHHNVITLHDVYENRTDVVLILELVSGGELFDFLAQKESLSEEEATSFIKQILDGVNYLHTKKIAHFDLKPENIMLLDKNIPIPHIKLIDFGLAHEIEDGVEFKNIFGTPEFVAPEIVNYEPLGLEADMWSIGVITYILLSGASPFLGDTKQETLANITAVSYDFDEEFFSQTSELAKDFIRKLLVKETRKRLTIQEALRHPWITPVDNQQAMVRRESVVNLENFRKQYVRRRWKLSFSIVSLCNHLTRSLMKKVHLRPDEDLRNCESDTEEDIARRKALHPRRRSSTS
Method in brief: as §1

DDR2(h) = DDR2(h) (Homo sapiens, UniProt Q16832)
Method in brief: as §1

DYRK2(h) = DYRK2(h) (Homo sapiens, UniProt Q92630)
Method in brief: as §1

GCN2(h) = target: T4, GCN2(h) (Homo sapiens, UniProt Q9P2K8)
T4 construct: gene EIF2AK4
Method in brief: as §1

HIPK4(h) = HIPK4(h) (Homo sapiens, UniProt Q8NE63)
Method in brief: as §1

IGF-1R(h), activated = target: T5, IGF-1R(h), activated (Homo sapiens, UniProt P08069)
T5 construct: gene IGF1R
T5 sequence (P08069 whole entry): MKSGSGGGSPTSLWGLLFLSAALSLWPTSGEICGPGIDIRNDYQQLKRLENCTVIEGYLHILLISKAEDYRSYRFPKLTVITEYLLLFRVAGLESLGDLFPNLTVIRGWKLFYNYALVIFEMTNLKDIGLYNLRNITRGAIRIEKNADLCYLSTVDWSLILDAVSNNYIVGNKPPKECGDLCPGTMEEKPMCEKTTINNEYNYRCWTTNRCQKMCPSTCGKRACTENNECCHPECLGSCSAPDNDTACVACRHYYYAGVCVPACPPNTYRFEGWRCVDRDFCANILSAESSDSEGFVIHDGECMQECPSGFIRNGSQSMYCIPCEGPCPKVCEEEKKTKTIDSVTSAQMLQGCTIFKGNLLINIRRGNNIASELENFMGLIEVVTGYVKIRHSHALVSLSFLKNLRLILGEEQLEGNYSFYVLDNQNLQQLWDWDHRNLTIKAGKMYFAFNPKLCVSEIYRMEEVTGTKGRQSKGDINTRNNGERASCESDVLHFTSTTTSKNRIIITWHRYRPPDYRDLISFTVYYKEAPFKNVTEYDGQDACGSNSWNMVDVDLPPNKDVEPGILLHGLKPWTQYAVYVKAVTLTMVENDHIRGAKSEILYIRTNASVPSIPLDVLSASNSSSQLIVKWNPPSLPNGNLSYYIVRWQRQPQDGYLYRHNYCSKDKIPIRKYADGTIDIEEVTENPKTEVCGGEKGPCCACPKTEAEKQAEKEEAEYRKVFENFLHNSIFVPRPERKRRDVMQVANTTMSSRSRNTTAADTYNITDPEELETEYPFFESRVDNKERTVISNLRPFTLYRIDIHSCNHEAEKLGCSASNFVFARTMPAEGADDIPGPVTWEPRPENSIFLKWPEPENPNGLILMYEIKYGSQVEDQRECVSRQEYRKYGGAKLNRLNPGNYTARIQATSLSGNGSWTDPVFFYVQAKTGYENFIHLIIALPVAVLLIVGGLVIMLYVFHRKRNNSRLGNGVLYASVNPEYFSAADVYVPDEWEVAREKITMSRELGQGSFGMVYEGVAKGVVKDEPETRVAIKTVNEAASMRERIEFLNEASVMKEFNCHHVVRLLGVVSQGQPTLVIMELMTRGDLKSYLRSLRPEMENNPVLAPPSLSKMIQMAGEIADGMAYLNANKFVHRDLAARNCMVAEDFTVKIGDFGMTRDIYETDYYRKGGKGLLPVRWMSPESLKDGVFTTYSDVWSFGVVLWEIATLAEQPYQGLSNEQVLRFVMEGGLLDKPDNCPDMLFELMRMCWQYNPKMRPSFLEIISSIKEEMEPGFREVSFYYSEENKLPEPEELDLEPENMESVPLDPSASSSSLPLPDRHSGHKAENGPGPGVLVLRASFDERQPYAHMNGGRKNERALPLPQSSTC
Method in brief: as §1

IRE1(h) = target: T6, IRE1(h) (Homo sapiens, UniProt O75460)
T6 construct: gene ERN1
T6 sequence (O75460 whole entry): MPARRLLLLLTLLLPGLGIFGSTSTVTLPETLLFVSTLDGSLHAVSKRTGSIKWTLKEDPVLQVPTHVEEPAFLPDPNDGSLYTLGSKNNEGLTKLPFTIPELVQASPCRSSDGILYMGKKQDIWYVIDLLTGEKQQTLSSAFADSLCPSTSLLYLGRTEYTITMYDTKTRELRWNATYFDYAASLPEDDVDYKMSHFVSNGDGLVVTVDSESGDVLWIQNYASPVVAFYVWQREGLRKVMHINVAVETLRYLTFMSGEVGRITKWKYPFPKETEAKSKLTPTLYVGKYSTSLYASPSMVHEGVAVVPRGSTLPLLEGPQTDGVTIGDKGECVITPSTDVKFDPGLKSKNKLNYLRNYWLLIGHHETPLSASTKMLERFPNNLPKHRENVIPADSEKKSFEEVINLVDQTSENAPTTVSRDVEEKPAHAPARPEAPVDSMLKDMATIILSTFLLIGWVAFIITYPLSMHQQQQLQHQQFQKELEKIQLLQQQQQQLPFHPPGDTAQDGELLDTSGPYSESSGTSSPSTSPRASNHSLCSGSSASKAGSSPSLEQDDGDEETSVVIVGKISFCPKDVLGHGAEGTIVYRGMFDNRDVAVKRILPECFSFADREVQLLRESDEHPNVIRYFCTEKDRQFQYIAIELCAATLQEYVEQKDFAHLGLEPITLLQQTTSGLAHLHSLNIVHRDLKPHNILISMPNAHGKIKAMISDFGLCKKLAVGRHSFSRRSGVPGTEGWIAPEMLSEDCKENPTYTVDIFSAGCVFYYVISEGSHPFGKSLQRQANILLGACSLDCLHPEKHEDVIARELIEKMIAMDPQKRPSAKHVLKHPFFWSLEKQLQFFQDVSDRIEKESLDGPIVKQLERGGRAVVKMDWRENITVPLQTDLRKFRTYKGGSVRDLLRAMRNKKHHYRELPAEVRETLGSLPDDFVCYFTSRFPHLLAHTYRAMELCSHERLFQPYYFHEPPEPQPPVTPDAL
Method in brief: as §1

Lck(h) = Lck(h) (Homo sapiens, UniProt P06239)
Chain of Lck(h) (P06239 whole entry): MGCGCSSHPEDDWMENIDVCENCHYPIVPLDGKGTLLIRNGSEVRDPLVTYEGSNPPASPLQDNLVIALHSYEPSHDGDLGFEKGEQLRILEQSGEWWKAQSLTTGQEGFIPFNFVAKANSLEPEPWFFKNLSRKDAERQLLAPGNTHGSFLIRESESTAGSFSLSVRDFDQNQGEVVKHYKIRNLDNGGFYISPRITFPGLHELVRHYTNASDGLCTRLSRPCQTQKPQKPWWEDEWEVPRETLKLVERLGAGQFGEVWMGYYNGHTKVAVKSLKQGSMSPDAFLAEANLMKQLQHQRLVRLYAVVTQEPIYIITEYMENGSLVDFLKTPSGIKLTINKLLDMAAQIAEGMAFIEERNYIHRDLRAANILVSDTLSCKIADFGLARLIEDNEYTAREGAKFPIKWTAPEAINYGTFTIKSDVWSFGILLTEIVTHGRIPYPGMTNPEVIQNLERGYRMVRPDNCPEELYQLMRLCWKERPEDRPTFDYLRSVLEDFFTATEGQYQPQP
Method in brief: as §1

Lck(h) activated = Lck(h) activated (Homo sapiens, UniProt P06239)
Chain of Lck(h) activated (P06239 whole entry): as above
Method in brief: as §1

MAP4K5(h) = MAP4K5(h) (Homo sapiens, UniProt Q9Y4K4)
Chain of MAP4K5(h) (Q9Y4K4 whole entry): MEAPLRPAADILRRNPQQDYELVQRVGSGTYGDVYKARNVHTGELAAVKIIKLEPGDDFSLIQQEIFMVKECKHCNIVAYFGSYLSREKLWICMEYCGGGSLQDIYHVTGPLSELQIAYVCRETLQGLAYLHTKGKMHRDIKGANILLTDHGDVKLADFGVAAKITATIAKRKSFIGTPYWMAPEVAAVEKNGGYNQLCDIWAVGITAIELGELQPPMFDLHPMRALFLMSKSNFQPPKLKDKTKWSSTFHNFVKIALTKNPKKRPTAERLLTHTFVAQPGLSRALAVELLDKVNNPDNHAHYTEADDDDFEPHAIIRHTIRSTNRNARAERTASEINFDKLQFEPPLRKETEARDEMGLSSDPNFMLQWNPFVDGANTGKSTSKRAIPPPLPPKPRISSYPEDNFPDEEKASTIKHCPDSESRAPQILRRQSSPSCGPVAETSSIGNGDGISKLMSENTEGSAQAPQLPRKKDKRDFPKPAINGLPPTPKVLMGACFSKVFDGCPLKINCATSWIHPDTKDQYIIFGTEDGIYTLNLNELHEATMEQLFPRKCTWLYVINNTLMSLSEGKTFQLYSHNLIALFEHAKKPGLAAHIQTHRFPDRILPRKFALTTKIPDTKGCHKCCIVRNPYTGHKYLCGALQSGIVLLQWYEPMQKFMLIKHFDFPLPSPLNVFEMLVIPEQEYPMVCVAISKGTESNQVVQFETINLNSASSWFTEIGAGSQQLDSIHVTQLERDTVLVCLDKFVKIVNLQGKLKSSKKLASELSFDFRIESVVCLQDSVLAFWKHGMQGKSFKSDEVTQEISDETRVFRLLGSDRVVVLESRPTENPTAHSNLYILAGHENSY
Method in brief: as §1

PDHK4(h) = target: T7, PDHK4(h) (Homo sapiens, UniProt Q16654)
T7 construct: gene PDK4
Method in brief: as §1

PKCζ(h) = target: T8, PKCζ(h) (Homo sapiens, UniProt Q05513)
T8 construct: gene PRKCZ
Method in brief: as §1

PhKγ2(h) = target: T9, PhKγ2(h) (Homo sapiens, UniProt P15735)
T9 construct: gene PHKG2
T9 sequence (P15735 whole entry): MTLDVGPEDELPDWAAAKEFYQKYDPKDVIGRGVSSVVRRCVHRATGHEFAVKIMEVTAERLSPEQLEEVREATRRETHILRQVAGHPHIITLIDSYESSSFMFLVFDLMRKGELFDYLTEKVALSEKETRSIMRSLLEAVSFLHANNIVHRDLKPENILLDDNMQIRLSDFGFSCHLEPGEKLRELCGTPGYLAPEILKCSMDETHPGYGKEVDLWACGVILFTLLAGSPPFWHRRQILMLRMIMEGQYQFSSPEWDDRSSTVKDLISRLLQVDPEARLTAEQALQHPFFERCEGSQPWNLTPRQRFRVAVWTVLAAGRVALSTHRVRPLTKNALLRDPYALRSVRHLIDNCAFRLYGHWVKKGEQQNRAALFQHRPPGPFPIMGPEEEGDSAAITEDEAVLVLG
Method in brief: as §1

Pyk2(h) = target: T10, Pyk2(h) (Homo sapiens, UniProt Q14289)
T10 construct: gene PTK2B
Method in brief: as §1

Snk(h) = target: T11, Snk(h) (Homo sapiens, UniProt Q9NYY3)
T11 construct: gene PLK2
Method in brief: as §1

Syk(h) = Syk(h) (Homo sapiens, UniProt P43405)
Method in brief: as §1

mTOR(h) = mTOR(h) (Homo sapiens, UniProt P42345)
Method in brief: as §1

Question: Which remaining activity at 10 µM (AAK1(h)) does the source give for `C1=C(c2nc(-c3cnn(C4CCNCC4)c3)cn3cc(-c4ccccc4)nc23)CCOC1` [YL-939] here?
Answer: The remaining activity at 10 µM was 68%.

Question: And the remaining activity at 10 µM (Abl (H396P) (h))?
Answer: Its remaining activity at 10 µM is 91%.

Question: And the remaining activity at 10 µM (CK1ε(h))?
Answer: The remaining activity at 10 µM was 74%.

Question: What about the remaining activity at 10 µM (Cdc7/cyclinB1(h)) of the same compound?
Answer: Its remaining activity at 10 µM is 104%.

Question: And the remaining activity at 10 µM (ChaK1(h))?
Answer: Its remaining activity at 10 µM is 92%.

Question: What about the remaining activity at 10 µM (DAPK1(h)) of the same compound?
Answer: Its remaining activity at 10 µM is 82%.

Question: What about the remaining activity at 10 µM (DAPK2(h)) of the same compound?
Answer: Its remaining activity at 10 µM is 138%.

Question: And the remaining activity at 10 µM (DDR2(h))?
Answer: Its remaining activity at 10 µM is 95%.

Question: And the remaining activity at 10 µM (DYRK2(h))?
Answer: The remaining activity at 10 µM was 93%.

Question: What about the remaining activity at 10 µM (GCN2(h)) of the same compound?
Answer: Its remaining activity at 10 µM is 67%.

Question: And the remaining activity at 10 µM (HIPK4(h))?
Answer: The remaining activity at 10 µM was 106%.

Question: What about the remaining activity at 10 µM (IGF-1R(h), activated) of the same compound?
Answer: Its remaining activity at 10 µM is 95%.

Question: What about the remaining activity at 10 µM (IRE1(h)) of the same compound?
Answer: Its remaining activity at 10 µM is 94%.

Question: And the remaining activity at 10 µM (Lck(h))?
Answer: The remaining activity at 10 µM was 122%.

Question: What about the remaining activity at 10 µM (Lck(h) activated) of the same compound?
Answer: The remaining activity at 10 µM was 77%.

Question: And the remaining activity at 10 µM (MAP4K5(h))?
Answer: The remaining activity at 10 µM was 76%.

Question: And the remaining activity at 10 µM (PDHK4(h))?
Answer: The remaining activity at 10 µM was 109%.

Question: And the remaining activity at 10 µM (PKCζ(h))?
Answer: Its remaining activity at 10 µM is 94%.

Question: What about the remaining activity at 10 µM (PhKγ2(h)) of the same compound?
Answer: Its remaining activity at 10 µM is 68%.

Question: And the remaining activity at 10 µM (Pyk2(h))?
Answer: Its remaining activity at 10 µM is 108%.

Question: What about the remaining activity at 10 µM (Snk(h)) of the same compound?
Answer: Its remaining activity at 10 µM is 112%.

Question: And the remaining activity at 10 µM (Syk(h))?
Answer: Its remaining activity at 10 µM is 62%.

Question: And the remaining activity at 10 µM (mTOR(h))?
Answer: The remaining activity at 10 µM was 91%.
